Consider three molecules from patent US6306860A, “2,5-pyridinedicarboxylic acid derivatives” (Dong Wha Pharm. Inc. Co., Ltd., priority 1998, dated 2001).

For one assay, the system named is HBV. The following applies: results of some studies; cited from earlier work.
In a further assay the target is T1, HBV polymerase (Hepatitis B virus genotype D subtype ayw, UniProt P03156).
T1 construct: made in house; host or cells: E. coli
The experiment in a line: Inhibitory activities against HBV polymerase (reverse transcriptase activity) in vitro. In kind it is biochemical. The following applies: read-out: Inhibitory activity of HBV-RT (%). The essentials:
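Recombinant HBV polymerase expressed in E. coli was incubated with reaction mixture and test compound for 18~24 hours at 14° C.~30° C. Reverse transcriptase product, labelled with biotin- and DIG-modified nucleotide, detected ELISA-style with peroxidase anti-DIG antibody; inhibition judged relative to controls without compound.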

Assay [1] has as its target T2, HIV reverse transcriptase (Human immunodeficiency virus type 1 group M subtype B, UniProt P04585).
T2 construct: purchased Boehringer Mannheim
The experiment in a line: In vitro inhibition test against HIV reverse transcriptase. It is filed as biochemical. The conditions noted are these: read-out: Inhibitory activity of HIV-RT (%). The essentials: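 Non-radioactive colorimetric kit assay: 40 ng HIV-RT with poly(A)/oligo(dT)15 template/primer plus DIG-dUTP, biotin-dUTP and TTP, incubated with compound 1 h at 37 °C. Product captured on streptavidin, detected with anti-DIG-POD and ABTS; A405 read, with activity compared to a no-compound control.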

T1 sequence (P03156 whole entry): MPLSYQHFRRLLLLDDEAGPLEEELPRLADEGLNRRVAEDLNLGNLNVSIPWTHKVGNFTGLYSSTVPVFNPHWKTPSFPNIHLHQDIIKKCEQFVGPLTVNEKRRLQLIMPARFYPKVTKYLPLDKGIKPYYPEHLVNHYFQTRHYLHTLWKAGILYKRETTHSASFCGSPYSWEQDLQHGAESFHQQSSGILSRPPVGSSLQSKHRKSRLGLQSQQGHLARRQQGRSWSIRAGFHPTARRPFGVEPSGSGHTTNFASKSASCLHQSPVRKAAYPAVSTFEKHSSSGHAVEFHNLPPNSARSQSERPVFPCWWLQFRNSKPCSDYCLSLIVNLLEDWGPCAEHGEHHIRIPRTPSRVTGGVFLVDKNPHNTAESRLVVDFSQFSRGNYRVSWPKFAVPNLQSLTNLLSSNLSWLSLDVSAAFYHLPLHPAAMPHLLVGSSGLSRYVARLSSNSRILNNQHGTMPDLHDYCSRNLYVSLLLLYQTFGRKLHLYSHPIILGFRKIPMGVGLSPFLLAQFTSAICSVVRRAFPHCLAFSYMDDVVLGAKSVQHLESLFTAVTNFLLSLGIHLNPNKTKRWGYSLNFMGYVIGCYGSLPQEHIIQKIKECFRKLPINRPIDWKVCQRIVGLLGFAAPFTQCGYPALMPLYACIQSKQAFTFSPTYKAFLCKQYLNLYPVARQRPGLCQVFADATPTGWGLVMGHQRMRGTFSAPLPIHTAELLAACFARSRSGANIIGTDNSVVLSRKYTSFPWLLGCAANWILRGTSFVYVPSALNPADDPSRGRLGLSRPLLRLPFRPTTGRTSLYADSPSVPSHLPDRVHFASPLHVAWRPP

Turning to `CC(=O)OCC(CCn1cnc2cnc(N)nc21)COC(C)=O` [Famvir], the “suppressing the proliferation of HBV” value with HBV was “effective in suppressing the proliferation of HBV”.

With `Nc1ccn([C@@H]2CS[C@H](CO)O2)c(=O)n1` [Lamivudine], the “suppressing the proliferation of HBV” value with HBV was “effective in suppressing the proliferation of HBV”.

Regarding `CC(C)CNc1cccnc1N1CCN(C(=O)c2ccc(C(=O)NC(C)(C)CO)cn2)CC1` [Exam. 23, 5-[N-(1,1-dimethyl-2-hydroxyethyl)carbamoyl]-2-[1-[3-(isobutylamino)-2-pyridyl]piperazin-4-yl-carbonyl]pyridine], the inhibition at 0.01 µg/mL on HBV polymerase (0.01 μg/ml) was found to be 63%. Also, the figures for the inhibition at 0.1 µg/mL (on HBV polymerase (0.1 μg/ml); in assay [1] (0.1 μg/ml)) were 71% and 46%, respectively. Moreover, the inhibition at 1 µg/mL worked out at 90% on HBV polymerase (1 μg/ml) and 62% in assay [1] (1 μg/ml).
